The test has as its target interaction between p53 and MDM2 proteins (recombinant GST-tagged MDM2 / biotinylated p53 peptide) (Homo sapiens, UniProt Q00987). Briefly: HTRF assay of inhibition of the p53-MDM2 interaction. The test is classed as binding. The settings on record: 0.2% BSA. As to the method:
The ability of the compounds to inhibit the interaction between p53 and MDM2 proteins was measured by an HTRF (homogeneous time-resolved fluorescence) assay in which recombinant GST-tagged MDM2 binds to a peptide that resembles the MDM2-interacting region of p53 (Lane et al.). Binding of GST-MDM2 protein and p53-peptide (biotinylated on its N-terminal end) is registered by the FRET (fluorescence resonance energy transfer) between Europium (Eu)-labeled anti-GST antibody and streptavidin-conjugated Allophycocyanin (APC).
Test is performed in black flat-bottom 384-well plates (Costar) in a total volume of 40 uL containing: 90 nM biotinylate peptide, 160 ng/ml GST-MDM2, 20 nM streptavidin-APC (PerkinElmerWallac), 2 nM Eu-labeled anti-GST-antibody (PerkinElmerWallac), 0.2% bovine serum albumin (BSA), 1 mM dithiothreitol (DTT) and 20 mM Tris-borate saline (TBS) buffer as follows: Add 10 uL of GST-MDM2 (640 ng/ml working solution) in reaction buffer to each well. Add 10 uL diluted compounds (1:5 dilution in reaction buffer) to each well, mix by shaking. Add 20 uL biotinylated p53 peptide (180 nM working solution) in reaction buffer to each well and mix on shaker. Incubate at 37° C. for 1 h. Add 20 uL streptavidin-APC and Eu-anti-GST antibody mixture (6 nM Eu-anti-GST and 60 nM streptavidin-APC working solution) in TBS buffer with 0.2% BSA, shake at room temperature for 30 minutes and read using a TRF-capable plate reader at 665 and 615 nm (Victor 5, Perkin ElmerWallac). If not specified, the reagents were purchased from Sigma Chemical Co.
For orientation: Time-resolved FRET reads energy transfer from a long-lived donor to a nearby acceptor.

Chain of interaction between p53 and MDM2 proteins (recombinant GST-tagged MDM2 / biotinylated p53 peptide) (Q00987 whole entry): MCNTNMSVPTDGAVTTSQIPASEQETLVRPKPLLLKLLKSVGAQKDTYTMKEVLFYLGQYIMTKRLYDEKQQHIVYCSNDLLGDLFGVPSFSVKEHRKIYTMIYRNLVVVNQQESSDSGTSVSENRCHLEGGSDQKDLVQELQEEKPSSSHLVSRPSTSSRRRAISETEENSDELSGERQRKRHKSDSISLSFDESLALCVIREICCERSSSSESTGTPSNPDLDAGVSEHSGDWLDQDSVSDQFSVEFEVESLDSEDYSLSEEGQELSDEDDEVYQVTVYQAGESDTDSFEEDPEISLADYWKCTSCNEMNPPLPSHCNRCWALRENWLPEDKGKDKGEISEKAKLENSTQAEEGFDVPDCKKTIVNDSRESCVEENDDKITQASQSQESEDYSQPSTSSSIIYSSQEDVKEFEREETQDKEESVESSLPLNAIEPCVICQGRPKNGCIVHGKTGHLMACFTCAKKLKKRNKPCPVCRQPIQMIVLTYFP

On to `C#Cc1ccc(OCC2CCN(C(=O)OC(C)(C)C)CC2)c([C@H]2NC(=O)C[C@@H](c3cccc(Cl)c3)[C@]23C(=O)Nc2cc(Cl)ccc23)c1` (racemic) [Example 2, racemic(2′R,3R,4′S)-2′-[2-(1-(tert-butoxycarbonyl)-4-piperidinylmethoxy)-5-ethynyl-phenyl]-6-chloro-4′-(3-chlorophenyl)spiro[3H-indole-3,3′-piperidine]-2,6′(1H)-dione], for which the IC50 – broadly, the midpoint of a concentration-inhibition curve – is 0.205 µM.
The figure for `C#Cc1ccc(OC2CCN(C(=O)N(CC)CC)CC2)c([C@H]2NC(=O)C[C@@H](c3cccc(Cl)c3)[C@]23C(=O)Nc2cc(Cl)ccc23)c1` (racemic) [Example 22b, racemic(2′R,3R,4′S)-6-chloro-4′-(3-chlorophenyl)-2′-[2-(1-diethylcarbamoyl-4-piperidinyloxy)-5-ethynyl-phenyl]spiro[3H-indole-3,3′-piperidine]-2,6′(1H)-dione] is 0.042 µM; for `O=C1C[C@@H](c2cccc(Cl)c2)[C@]2(C(=O)Nc3cc(Cl)ccc32)[C@@H](c2cc(Br)ccc2Oc2ccc(C(=O)NCCN3CCCC3)cc2)N1` (racemic) [Example 56, racemic(2′R, 3R, 4′S)-2′-{5-bromo-2-[4-(2-pyrrolidin-1-yl-ethylcarbamoyl)-phenoxy]-phenyl}-6-chloro-4′-(3-chlorophenyl)spiro[3H-indole-3,3′-piperidine]-2,6′(1H)-dione] it is 0.131 µM.
To `CC(=O)Nc1ccc(Oc2ccc(Cl)cc2[C@H]2NC(=O)C[C@@H](c3cccc(Cl)c3)[C@]23C(=O)Nc2cc(Cl)ccc23)cc1` (racemic) [Example 87, racemic(2′R, 3R, 4′S)-2′-[2-(4-acetylamino-phenoxy)-5-chloro-phenyl]-6-chloro-4′-(3-chlorophenyl)spiro[3H-indole-3,3′-piperidine]-2,6′(1H)-dione] belongs 0.048 µM.
The figure for `CC(=O)N1CCC(Oc2ccc(I)cc2[C@H]2NC(=O)[C@@H](c3cccc(Cl)c3)C[C@]23C(=O)Nc2cc(Cl)ccc23)CC1` [Example 5c, chiral(2′R,3R,4′S)-2′-[2-(1-acetyl-4-piperidinyloxy)-5-iodo-phenyl]-6-chloro-4′-(3-chlorophenyl)spiro[3H-indole-3,3′-piperidine]-2,6′(1H)-dione] is 0.034 µM.

These data come from patent publication US8134001B2, “Spiroindolinone derivatives” (Hoffmann-La Roche Inc., priority 2007, dated 2012).
